In ChEMBL document CHEMBL1130577, “Synthesis of irreversible HIV-1 protease inhibitors containing sulfonamide and sulfone as amide bond isosteres” (Bioorg Med Chem Lett, 1997):

Key:
[1] = biological target: Human immunodeficiency virus type 1 protease (Human immunodeficiency virus 1) (UniProt Q72874); test: Bimolecular rate constant for the formation of HIV-1 protease complex was evaluated
[2] = biological target: Human immunodeficiency virus type 1 protease (Human immunodeficiency virus 1, UniProt Q72874); test: Compound was tested for its inhibitory activity against HIV-1 protease
H9 [3] = test: Inhibitory activity was evaluated against HIV-1 in H9 and Sup T1 cell lines as assessed by syncytium formation and reverse transcriptase assay; type: functional, cell-based; settings: Homo sapiens
Renin = biological target: T1, Renin (Homo sapiens, UniProt P00797); test: Inhibition against human renin was determined; IA means inactive
T1 sequence (P00797 whole entry): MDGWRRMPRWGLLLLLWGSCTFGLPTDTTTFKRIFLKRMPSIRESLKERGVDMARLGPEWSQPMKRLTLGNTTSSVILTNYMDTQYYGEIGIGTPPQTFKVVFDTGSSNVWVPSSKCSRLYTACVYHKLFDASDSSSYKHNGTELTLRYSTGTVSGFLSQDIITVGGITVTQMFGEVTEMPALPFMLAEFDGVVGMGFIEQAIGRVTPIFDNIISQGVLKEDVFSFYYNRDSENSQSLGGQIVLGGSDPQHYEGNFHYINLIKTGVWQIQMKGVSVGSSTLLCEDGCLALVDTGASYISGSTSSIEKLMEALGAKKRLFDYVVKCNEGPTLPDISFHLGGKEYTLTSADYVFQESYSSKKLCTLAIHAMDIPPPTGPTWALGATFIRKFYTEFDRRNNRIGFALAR

Cathepsin D = Cathepsin D (Homo sapiens, UniProt P07339); test: Inhibition against human cathepsin D was determined
Chain of Cathepsin D (P07339 65-162 limits assumed): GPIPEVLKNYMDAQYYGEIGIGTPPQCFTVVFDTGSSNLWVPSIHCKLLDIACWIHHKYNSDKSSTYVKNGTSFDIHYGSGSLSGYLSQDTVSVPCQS
Chain of Cathepsin D (P07339 169-412 limits assumed): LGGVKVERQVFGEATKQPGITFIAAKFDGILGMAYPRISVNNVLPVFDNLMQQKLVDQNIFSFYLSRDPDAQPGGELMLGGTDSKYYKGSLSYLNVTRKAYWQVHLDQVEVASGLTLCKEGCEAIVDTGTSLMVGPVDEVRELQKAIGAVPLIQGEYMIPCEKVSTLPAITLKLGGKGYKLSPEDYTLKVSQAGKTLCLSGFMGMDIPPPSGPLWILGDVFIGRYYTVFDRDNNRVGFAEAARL

H9 [4] = test: Inhibitory activity was evaluated against HIV-1 protease by using reverse transcription assay; type: functional, cell-based; settings: Homo sapiens

| Structure (SMILES) | K inact/Ki [1] [M⁻¹ s⁻¹] | Ki [2] [nM] | IC50 (H9 [3]) [nM] | IC50 (Renin) | IC50 (Cathepsin D) [nM] | IC50 (H9 [4]) [nM] |
| --- | --- | --- | --- | --- | --- | --- |
| CCN(c1ccccc1)S(=O)(=O)CC[C@@H]1O[C@@H]1[C@H](Cc1ccccc1)NC(=O)[C@@H](NC(=O)OCc1ccccc1)C(C)(C)S(C)(=O)=O | 717000 | 4.6 | 13.8 | – | – | – |
| CCN(C(C)C)S(=O)(=O)CC[C@@H]1O[C@@H]1[C@H](Cc1ccccc1)NC(=O)[C@@H](NC(=O)c1cccs1)C(C)(C)S(C)(=O)=O | 1.05e+06 | 3.1 | 18.2 | – | – | – |
| CCN(C(C)C)S(=O)(=O)CC[C@@H]1O[C@@H]1[C@H](Cc1ccccc1)NC(=O)[C@@H](NC(=O)c1ccc2ccccc2n1)C(C)(C)S(C)(=O)=O | 483000 | 7 | 6.6 | Not Active | 8200 | – |
| CCN(C(C)C)S(=O)(=O)CC[C@@H]1O[C@@H]1[C@H](Cc1ccccc1)NC(=O)[C@@H](NC(=O)OCc1ccccc1)C(C)(C)S(C)(=O)=O | 1.63e+06 | 0.8 | – | – | – | 10.9 |
| CC(C)N(C(=O)c1ccccc1)S(=O)(=O)CC[C@@H]1O[C@@H]1[C@H](Cc1ccccc1)NC(=O)[C@@H](NC(=O)OCc1ccccc1)C(C)(C)S(C)(=O)=O | 917000 | 3.6 | 15 | – | – | – |
| CCN(c1ccccc1)S(=O)(=O)CC[C@@H]1O[C@@H]1[C@H](Cc1ccccc1)NC(=O)[C@@H](NC(=O)c1ccc2ccccc2n1)C(C)(C)S(C)(=O)=O | 650000 | 5 | 10.7 | – | – | – |
| CC(C)(C)NS(=O)(=O)CC[C@@H]1O[C@@H]1[C@H](Cc1ccccc1)NC(=O)C(CC(N)=O)NC(=O)c1ccc2ccccc2n1 (stereo partly specified) | 250000 | 12.6 | 30 | – | – | – |
| CC(C)(C)NS(=O)(=O)CC[C@@H]1O[C@@H]1[C@H](Cc1ccccc1)NC(=O)[C@@H](NC(=O)OCc1ccccc1)C(C)(C)S(C)(=O)=O | 1.33e+06 | 0.7 | 20.2 | – | – | – |
| CC(C)C(NC(=O)C[C@@H]1O[C@@H]1[C@H](Cc1ccccc1)NC(=O)[C@H](CC(N)=O)NC(=O)c1ccc2ccccc2n1)C(C)C | 3.33e+06 | – | 20 | – | – | – |
| CCN(CC(C)C)S(=O)(=O)CC[C@@H]1O[C@@H]1[C@H](Cc1ccccc1)NC(=O)[C@@H](NC(=O)OCc1ccccc1)C(C)(C)S(C)(=O)=O | 1.15e+06 | 2.9 | 10.7 | – | – | – |
